Read-outs that look alike come from different tables or passages of the source.
Experiments:
CB2 receptor = target: T1, CB2 receptor (Homo sapiens, UniProt P34972); assay: Calcium mobilization assay, agonist mode, CHO expressing CB2 and Gα16; format: cell-based; conditions: for SI, selectivity index for the CB2, SI = EC50(CB1)/EC50(CB2): agonist mode
T1 construct: expressed in transfected cells
Protocol: (§1) Chinese hamster ovarian (CHO) cells collected from the American Type Culture Collection were maintained in Ham’s F-12K (Kaighn’s) supplemented with 100 mg/L streptomycin, 100 mg/L penicillin, and 10% fetal bovine serum (FBS) in a humidified atmosphere of 5% CO2 at 37 °C. CHO cells were co-transfected with plasmids encoding CB1 or CB2 and Gα16 by electroporation. To establish stable cell lines, transfected cells were seeded on 10 cm dishes with 40 μg/mL blasticidin and 1 mg/mL G418 in culture medium after 24 h. The selection medium was substituted once every 3 days until colonies formed. A solitary colony was obtained, propagated, and assessed using a calcium mobilization assay to verify the function and expression of the transfected genes.
(§2) 3 × 10^4 cells/well were employed to seed cells onto 96-well plates, which were subsequently incubated throughout the night. […] For antagonist mode, the extra dye was washed out and 50 μL of HBSS with test compounds, DMSO (negative control), or AM630 (positive control) was introduced. […] To be noticed, each experiment has been independently replicated three times, with three repetitions and eight gradients each time.
(§3) The collected data were processed with GraphPad Prism software (GraphPad). […] Means ± SEM were computed utilizing this software. The analyses were evaluated by the Student t test. When the p value is smaller than 0.05, the result is statistically significant.

CB1 receptor = CB1 receptor (Homo sapiens, UniProt P21554); assay: Calcium mobilization assay, agonist mode, CHO expressing CB1 and Gα16; format: cell-based; conditions: agonist activity, CHO expressing CB1, mean ± SEM; read-out: CB1 EC50
Sequence of CB1 receptor (P21554 whole entry): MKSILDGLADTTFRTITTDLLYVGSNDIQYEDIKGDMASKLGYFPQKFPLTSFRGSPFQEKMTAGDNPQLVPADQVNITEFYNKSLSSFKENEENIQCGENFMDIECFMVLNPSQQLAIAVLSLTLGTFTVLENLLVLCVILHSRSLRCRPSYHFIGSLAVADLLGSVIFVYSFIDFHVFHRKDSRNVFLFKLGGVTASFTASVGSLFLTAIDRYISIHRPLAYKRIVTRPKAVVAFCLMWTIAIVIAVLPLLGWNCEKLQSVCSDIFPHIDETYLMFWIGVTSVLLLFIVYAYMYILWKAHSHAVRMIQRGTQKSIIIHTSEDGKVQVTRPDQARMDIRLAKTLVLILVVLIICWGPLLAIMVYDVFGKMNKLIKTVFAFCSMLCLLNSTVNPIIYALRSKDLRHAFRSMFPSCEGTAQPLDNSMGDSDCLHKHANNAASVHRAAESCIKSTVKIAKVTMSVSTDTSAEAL
Protocol: as §1, §2, §3

[1] = agonist activity, CHO expressing CB2, three independent assays, mean ± SEM, read-out: CB2 EC50
[2] = single independent experiment, replicate 1, read-out: CB2 agonist(μM) replicate 1
[3] = single independent experiment, replicate 2, read-out: CB2 agonist(μM) replicate 2
[4] = single independent experiment, replicate 3, read-out: CB2 agonist(μM) replicate3

T1 sequence (P34972 whole entry): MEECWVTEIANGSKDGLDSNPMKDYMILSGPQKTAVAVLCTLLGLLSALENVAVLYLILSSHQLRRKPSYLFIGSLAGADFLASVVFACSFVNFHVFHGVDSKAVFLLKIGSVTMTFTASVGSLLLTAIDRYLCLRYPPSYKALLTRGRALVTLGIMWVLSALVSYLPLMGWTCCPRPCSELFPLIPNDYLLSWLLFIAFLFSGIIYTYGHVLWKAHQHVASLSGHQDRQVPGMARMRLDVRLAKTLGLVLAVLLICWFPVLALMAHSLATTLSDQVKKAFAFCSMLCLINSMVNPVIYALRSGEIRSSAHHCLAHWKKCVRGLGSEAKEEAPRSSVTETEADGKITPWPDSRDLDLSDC

Row | SMILES | EC50 (CB2 receptor; [1]) [µM] | SI, selectivity index for the CB2, SI = EC50(CB1)/EC50(CB2) (CB2 receptor) | EC50 (CB2 receptor; [2]) [µM] | EC50 (CB2 receptor; [3]) [µM] | EC50 (CB2 receptor; [4]) [µM] | EC50 (CB1 receptor) [nM] | CB1 and CB2 biological activity (in words) (CB2 receptor; CB1 and CB2 calcium mobilization assays, up to 10 μM)
1 | CC(C)N1C(=O)SC(=Cc2ccccc2OC(=O)C(C)(C)CCl)C1=O [Compound 21, 2-((3-Isopropyl-2,4-dioxothiazolidin-5-ylidene)methyl)phenyl 3-Chloro-2,2-dimethylpropanoate] | 2.33 ± 0.45 | >4 | 1.46 | 2.61 | 2.93 | > 10000 | 
2 | CCCCCCCC(=O)Oc1ccccc1/C=C1\SC(=O)N(C(C)C)C1=O [Compound 20, 2-((3-Isopropyl-2,4-dioxothiazolidin-5-ylidene) Methyl) Phenyl Octanoate] | > 10 |  |  |  |  | > 10000 | 
3 | O=C1SC(=Cc2ccccc2OCc2ccccc2F)C(=O)N1C1CCCC1 [Compound 12, 3-Cyclopentyl-5-(2-((2-fluorobenzyl)oxy)benzylidene)thiazolidine-2,4-dione] | > 10 |  |  |  |  | > 10000 | no bioactivity
4 | CCCCCCCC(=O)Oc1ccccc1C=C1SC(=O)N(CC(C)C)C1=O [Compound 14, 2-((3-Isobutyl-2,4-dioxothiazolidin-5-ylidene)methyl) Phenyl Octanoate] | > 10 |  |  |  |  | > 10000 | 
5 | COc1ccc(C=C2SC(=O)N(CC(C)C)C2=O)cc1OC(=O)C(C)(C)CCl [Compound 34, 5-((3-Isobutyl-2,4-dioxothiazolidin-5-ylidene)methyl)-2-methoxyphenyl 3-Chloro-2,2-dimethylpropanoate] | > 10 |  |  |  |  | > 10000 | 
6 | CCCC(=O)Oc1cc(C=C2SC(=O)N(C(C)C)C2=O)ccc1OC [Compound 33, 5-((3-Isopropyl-2,4-dioxothiazolidin-5-ylidene)methyl)-2-methoxyphenylbuty Rate] | > 10 |  |  |  |  | > 10000 | 

Results, then the molecule that gave them:

Row | EC50 (CB2 receptor; [1]) [µM] | SI, selectivity index for the CB2, SI = EC50(CB1)/EC50(CB2) (CB2 receptor) | EC50 (CB2 receptor; [2]) [µM] | EC50 (CB2 receptor; [3]) [µM] | EC50 (CB2 receptor; [4]) [µM] | EC50 (CB1 receptor) [nM] | CB1 and CB2 biological activity (in words) (CB2 receptor; CB1 and CB2 calcium mobilization assays, up to 10 μM) | SMILES
7 | 1.58 ± 1.12 | >6 | 0.486 | 3.82 | 0.43 | > 10000 |  | CC(C)CN1C(=O)SC(=Cc2ccccc2OC(=O)N2CCOCC2)C1=O [Compound 15, 2-((3-Isobutyl-2,4-dioxothiazolidin-5-ylidene)methyl)phenyl Morpholine-4-carboxylate]
8 | > 10 |  |  |  |  | > 10000 |  | COc1ccc(C=C2SC(=O)N(C(C)C)C2=O)cc1OC(=O)c1ccccc1F [Compound 29, 5-((3-Isopropyl-2,4-dioxothiazolidin-5-ylidene)methyl)-2-methoxyphenyl 2-Fluorobenzoate]
9 | 1.51 ± 0.29 | >6 | 0.949 | 1.89 | 1.69 | > 10000 |  | CC(C)CN1C(=O)S/C(=C\c2ccccc2OC(=O)C(C)(C)CCl)C1=O [Compound 16, 2-((3-Isobutyl-2,4-dioxothiazolidin-5-ylidene)methyl) Phenyl 3-Chloro-2,2-dimethylpropanoate]
10 | 1.6 ± 0.21 | >6 | 1.78 | 1.18 | 1.83 | > 10000 |  | CC(C)CN1C(=O)SC(=Cc2ccccc2OCc2ccccc2F)C1=O [Compound 10, 5-(2-((2-Fluorobenzyl)oxy)benzylidene)-3-isobutylthiazolidine-2,4-dione]
11 | 3.93 ± 1.97 | >2 | 7.84 | 2.4 | 1.54 | > 10000 |  | CC(C)N1C(=O)SC(=Cc2ccccc2OC(=O)c2ccc(Cl)nc2)C1=O [Compound 24, 2-((3-Isopropyl-2,4-dioxothiazolidin-5-ylidene)methyl)phenyl 6-Chloronico Tinate]
12 | 2.26 ± 0.48 | >4 | 1.67 | 1.92 | 3.2 | > 10000 |  | N#Cc1ccccc1COc1ccccc1C=C1SC(=O)N(C2CCCC2)C1=O [Compound 5, 2-((2-((3-Cyclopentyl-2,4-dioxothiazolidin-5-ylidene)methyl)phenoxy)methyl) Benzonitrile]
